The source of these data is patent US3954814A, “Alkadienylcyclopropanecarboxylates” (Sumitomo Chemical Company, Limited, priority 1971, dated 1976).

Holding throughout (assay type): in vivo
One assay concerns rice stem borer larvae. The assay is described as follows: micro dropping (topical) test on hibernating rice stem borer larvae (Experimental Example 3). Particulars: topical in acetone, head and tail of larvae, 3 days. From the text:
The present compounds (1), (4), (8), (10), (14), (15), (22), (32), (36), (38), (41), (44), (48), (50), (51), (52), (53), (61), (66), (68), (72), (73), (80), (81), (90) and (93) and chrysanthemic acid esters corresponding thereto were individually dissolved in acetone to prepare insecticides of various concentrations. Using a micro dropping means, each of the insecticides was dropped to the head and tail of hibernating rice stem borer larvae.

A further assay concerns house flies. The experiment in a line: Campbell's turn table oil spray test on house fly adults (Experimental Example 1). Particulars: Musca domestica, 24 h, oil spray 5 ml, 10 min exposure, mortality after 1 day, read-out: LC50 (50 percent lethal concentration). On the procedure:
The present compounds (1), (4), (8), (10), (14), (15), (20), (22), (32), (36), (38), (41), (44), (48), (50), (51), (52), (53), (61), (66), (68), (72), (73), (78), (80), (81), (90), (93) and (96), and chrysanthemic acid esters and pyrethric acid esters corresponding thereto were individually formulated by use of deodorized kerosene into oil sprays of various test concentrations.
Using the Campbell's turn table [disclosed in "Soap & Sanitary Chemicals," Vol. 14, No. 6, page 119 (1938)], 5 ml. of each of the oil sprays was sprayed. When 20 seconds had elapsed after the spraying, the shutter was opened, and adults of house flies (a group of about 100 flies) were exposed to the settling mist for 10 minutes and then transferred to an observation cage.
The above operation was repeated several times to measure the LC50 (50 percent lethal concentration) of each compound.

Assay [1] relates to Northern house mosquitoes. The assay is described as follows: knock-down test of oil sprays on Northern house mosquito adults in (70 cm)^3 glass chamber (Experimental Example 2). On the procedure: The present compounds (1), (6), (20), (22), (23), (25), (27), (29), (30), (31), (39), (42), (43), (45), (49), (53), (56), (62), (64), (78), (81), (83), (85), (87), (88) and (89), and chrysanthemic acid esters and pyrethric acid esters corresponding thereto were individually formulated by use of deodorized kerosene into oil sprays of various test concentrations.
About 20 adults of Northern house mosquitoes were liberated in a (70 cm)^3 glass chamber, and 0.7 ml. of each of the oil sprays was sprayed into the chamber under a pressure of 1.5 kg/cm^2 by use of a glass atomizer. Subsequently, the number of knocked-down mosquitoes was counted to calculate the KT50 (50 percent knock down time) of each compound.

Setting [2] is: concentration of oil spray 0.1%.
Setting [3] is: concentration of oil spray 0.2%.

In brackets after ≈: the same amount, converted by molar mass.

In the case of `CC(C)=CC1C(C(=O)OC(C#N)c2cccc(Oc3ccccc3)c2)C1(C)C` (stereo not drawn) [3-Phenoxy-α-cyanobenzyl chrysanthemate, reference compound], the “LD50 (50 percent lethal dose)” value in the assay on rice stem borer larvae is reported as 0.01 γ/larva. Also, in the assay on house flies, the LC50 turned out to be 60 µg/mL (≈ 160 µM). Also, the “KT50 (50 percent knock down time)” value in assay [1] (setting [2]) worked out at 230 s.

As to `CC(C)=CC1C(C(=O)OCc2coc(Cc3ccccc3)c2)C1(C)C` (stereo not shown) [5-Benzyl-3-furylmethyl chrysanthemate, 5-benzyl-3-furylmethyl chrysanthemate, reference compound], the “LD50 (50 percent lethal dose)” value in the assay with rice stem borer larvae is reported as 0.20 γ/larva. Further, in the assay on house flies, the LC50 amounted to 100 µg/mL (≈ 295 µM). Besides, the “KT50 (50 percent knock down time)” value in assay [1] (setting [3]) is 205 s.

Regarding `C=CCC1=C(C)C(OC(=O)C2C(C=C(C)C)C2(C)C)CC1=O` (stereo not shown) [Allethrin, reference compound], the “LD50 (50 percent lethal dose)” value with rice stem borer larvae was 2.6 γ/larva. Further, in the assay with house flies, the LC50 stood at 1180 µg/mL (≈ 3900 µM). For the same molecule, the “KT50 (50 percent knock down time)” value is 292 s in assay [1] (setting [2]) and 197 s in assay [1] (setting [3]).

With `C=CC(C)=CC1C(C(=O)OCc2coc(Cc3ccccc3)c2)C1(C)C` (stereo not shown) [Present compound (1), 5-Benzyl-3-furylmethyl 2',2'-dimethyl-3'-(2"-methyl-1", 3"-butadienyl)-cyclopropanecarboxylate], in the assay on rice stem borer larvae, the “LD50 (50 percent lethal dose)” value is 0.068 γ/larva. In the assay with house flies, the LC50 turned out to be 53 µg/mL (≈ 151 µM). In addition, in assay [1] (setting [3]), the “KT50 (50 percent knock down time)” value came out at 131 s.

For `C=CC(C)=CC1C(C(=O)OCc2cccc(Oc3ccccc3)c2)C1(C)C` (stereo not shown) [Present compound (15), 3-Phenoxybenzyl 2',2'-dimethyl-3'-(2"-methyl-1",3"-butadienyl)-cyclopropanecarboxylate], in the assay on rice stem borer larvae, the “LD50 (50 percent lethal dose)” value is listed as 0.29 γ/larva. The LC50 with house flies came out at 68 µg/mL (≈ 188 µM).

Turning to `C=CC(C)=CC1C(C(=O)OCC=C(Cl)Cc2ccccc2)C1(C)C` (stereo not shown) [Present compound (32), 3-Chloro-4-phenyl-2-butene-1-yl 2',2'-dimethyl-3'-(2"-methyl-1",3"-butadienyl)-cyclopropanecarboxylate], in the assay with rice stem borer larvae, the “LD50 (50 percent lethal dose)” value is listed as 0.52 γ/larva. Moreover, the LC50 in the assay on house flies stood at 190 µg/mL (≈ 551 µM).

With `C=CCc1cc(C)c(COC(=O)C2C(C=C(C)C=C)C2(C)C)c(C)c1` (stereo not shown) [Present compound (36), 2,6-Dimethyl-4-allylbenzyl 2',2'-dimethyl-3'-(2"-methyl-1",3"-butadienyl)-cyclopropanecarboxylate], the “LD50 (50 percent lethal dose)” value in the assay with rice stem borer larvae was 0.28 γ/larva. In addition, the LC50 in the assay on house flies was found to be 390 µg/mL (≈ 1150 µM).

Consider `CC=CC(C)=CC1C(C(=O)OCc2coc(Cc3ccccc3)c2)C1(C)C` (stereo not shown) [Present compound (38), 5-Benzyl-3-furylmethyl 2',2'-dimethyl-3'-(2"-methyl-1",3"-pentadienyl)-cyclopropanecarboxylate], for which the “LD50 (50 percent lethal dose)” value with rice stem borer larvae is recorded as 0.102 γ/larva. Moreover, the LC50 in the assay on house flies turned out to be 66 µg/mL (≈ 181 µM).

In the case of `CC=CC(C)=CC1C(C(=O)OCc2cccc(Oc3ccccc3)c2)C1(C)C` (stereo not shown) [Present compound (41), 3-Phenoxybenzyl 2',2'-dimethyl-3'-(2"-methyl-1",3"-pentadienyl)-cyclopropanecarboxylate], in the assay with rice stem borer larvae, the “LD50 (50 percent lethal dose)” value is given as 0.48 γ/larva. The LC50 in the assay on house flies is 100 µg/mL (≈ 266 µM).

As to `CC(C)=CC(C)=CC1C(C(=O)OCc2coc(Cc3ccccc3)c2)C1(C)C` (stereo not shown) [Present compound (44), 5-Benzyl-3-furylmethyl 2',2'-dimethyl-3'-(2",4"-dimethyl-1",3"-pentadienyl)-cyclopropanecarboxylate], the “LD50 (50 percent lethal dose)” value in the assay on rice stem borer larvae is on record as 0.145 γ/larva. Moreover, the LC50 in the assay on house flies is 63 µg/mL (≈ 166 µM).

Take `CC(C)=CC(C)=CC1C(C(=O)OCc2cccc(Oc3ccccc3)c2)C1(C)C` (stereo not shown) [Present compound (48), 3-Phenoxybenzyl 2',2'-dimethyl-3'-(2",4"-dimethyl-1",3"-pentadienyl)-cyclopropanecarboxylate]: in the assay on rice stem borer larvae, the “LD50 (50 percent lethal dose)” value is reported as 0.56 γ/larva. For the same molecule, the LC50 with house flies came out at 140 µg/mL (≈ 358 µM).

On to `C=CC=CC1C(C(=O)OCc2coc(Cc3ccccc3)c2)C1(C)C` (stereo not shown) [Present compound (50), 5-Benzyl-3-furylmethyl 2',2'-dimethyl-3'-(1",3"-butadienyl)-cyclopropanecarboxylate], for which the “LD50 (50 percent lethal dose)” value in the assay with rice stem borer larvae is 0.057 γ/larva. In addition, the LC50 in the assay on house flies stood at 44 µg/mL (≈ 131 µM).

In the case of `CC=CC=CC1C(C(=O)OCc2coc(Cc3ccccc3)c2)C1(C)C` (stereo not shown) [Present compound (51), 5-Benzyl-3-furylmethyl 2',2'-dimethyl-3'-(1",3"-pentadienyl)-cyclopropanecarboxylate], in the assay with rice stem borer larvae, the “LD50 (50 percent lethal dose)” value is 0.065 γ/larva. Moreover, the LC50 with house flies came out at 56 µg/mL (≈ 160 µM).

`CC(C)=CC=CC1C(C(=O)OCc2coc(Cc3ccccc3)c2)C1(C)C` (stereo not shown) [Present compound (52), 5-Benzyl-3-furylmethyl 2',2'-dimethyl-3'-(4"-methyl-1",3"-pentadienyl)-cyclopropanecarboxylate]: the “LD50 (50 percent lethal dose)” value in the assay on rice stem borer larvae is given as 0.100 γ/larva. For the same molecule, the LC50 in the assay on house flies was determined as 52 µg/mL (≈ 143 µM).

Take `C=CC=CC1C(C(=O)OCc2cccc(Cc3ccccc3)c2)C1(C)C` (stereo not shown) [Present compound (61), 3-Benzylbenzyl 2',2'-dimethyl-3"-(1",3"-butadienyl)-cyclopropanecarboxylate]: in the assay with rice stem borer larvae, the “LD50 (50 percent lethal dose)” value is 0.50 γ/larva. Besides, the LC50 with house flies came to 90 µg/mL (≈ 260 µM).

As for `C#CCc1ccc(COC(=O)C2C(C=CC=C)C2(C)C)cc1` (stereo not shown) [Present compound (66), 4-Propargylbenzyl 2',2'-dimethyl-3'-(1",3"-butadienyl)-cyclopropanecarboxylate], the “LD50 (50 percent lethal dose)” value in the assay on rice stem borer larvae is 0.31 γ/larva. In the assay on house flies, the LC50 came out at 350 µg/mL (≈ 1190 µM).

On to `C=CC=CC1C(C(=O)OCc2cc3c(o2)CCCC3)C1(C)C` (stereo not shown) [Present compound (68), 4,5-Tetramethylenefurfuryl 2',2'-dimethyl-3'-(1",3"-butadienyl)-cyclopropanecarboxylate], for which the “LD50 (50 percent lethal dose)” value in the assay with rice stem borer larvae is listed as 0.26 γ/larva. Besides, the LC50 in the assay on house flies is 110 µg/mL (≈ 366 µM).

Consider `C=CC=CC1C(C(=O)OCc2ccc(Oc3ccccc3)o2)C1(C)C` (stereo not shown) [Present compound (72), 5-Phenoxyfurfuryl 2',2'-dimethyl-3'-(1",3"-butadienyl)-cyclopropanecarboxylate], for which the “LD50 (50 percent lethal dose)” value with rice stem borer larvae is 0.034 γ/larva. For the same molecule, the LC50 in the assay with house flies amounted to 41 µg/mL (≈ 121 µM).

For the molecule `C=CC=CC1C(C(=O)OCc2cccc(Oc3ccccc3)c2)C1(C)C` (stereo not shown) [Present compound (73), 3-Phenoxybenzyl 2',2'-dimethyl-3'-(1",3"-butadienyl)-cyclopropanecarboxylate], the “LD50 (50 percent lethal dose)” value with rice stem borer larvae was 0.26 γ/larva. The LC50 in the assay with house flies came out at 60 µg/mL (≈ 172 µM).

Turning to `C=CC=CC1C(C(=O)OC(C#N)c2cccc(Oc3ccccc3)c2)C1(C)C` (stereo not drawn) [Present compound (80), 3-Phenoxy-α-cyanobenzyl 2',2'-dimethyl-3'-(1",3"-butadienyl)-cyclopropanecarboxylate], in the assay with rice stem borer larvae, the “LD50 (50 percent lethal dose)” value is 0.005 γ/larva. Moreover, in the assay on house flies, the LC50 is 35 µg/mL (≈ 93.7 µM).

Regarding `C=CC=CC1C(C(=O)OCC=C(Cl)Cc2ccccc2)C1(C)C` (stereo not shown) [Present compound (90), 3-Chloro-4-phenyl-2-butene-1-yl 2',2'-dimethyl-3'-(1",3"-butadienyl)-cyclopropanecarboxylate], in the assay on rice stem borer larvae, the “LD50 (50 percent lethal dose)” value is recorded as 0.43 γ/larva. Moreover, the LC50 in the assay with house flies amounted to 170 µg/mL (≈ 514 µM).

`C=CC=CC1C(C(=O)OCc2c(C)cc(CC=C)cc2C)C1(C)C` (stereo not shown) [Present compound (93), 2,6-Dimethyl-4-allylbenzyl 2',2'-dimethyl-3'-(1",3"-butadienyl)-cyclopropanecarboxylate]: in the assay with rice stem borer larvae, the “LD50 (50 percent lethal dose)” value was 0.21 γ/larva. Also, the LC50 in the assay on house flies was 230 µg/mL (≈ 709 µM).
